In data set [1] the target is TNF-α Convertase (Homo sapiens, UniProt P78536). The experiment in a line: Assay for inhibition of TNF-α production in LPS-stimulated, PMA-differentiated U937 cells.
Protocol: Human monocytic leukemia cell line U937 (human histiocytic lymphoma cell line U937) cells were cultured in RPMI 1640 (Nissui Pharmaceutical Co., Ltd., Japan) supplemented with 5% fetal calf serum (FCS; IBL, Japan) in an incubator at 37°C under 5% CO2, then transferred to multiplates at a density of 1 x 10^6 cells/1 ml/well, and incubated overnight in the presence of 10^-7 M phorbol 12-myristate 13-acetate (Wako Pure Chemical Industries, Ltd., Japan) to form differentiated macrophage-like cells. To the resultant cells was added E. coli O127:B8 lipopolysaccaride (LPS, 0.1 µg/ml; Sigma) alone or along with each compound of the present invention, and the treated cells were then incubated for 6 hours in an incubator under 5% CO2 at 37°C. After the incubation, the cultures were collected and centrifuged at 3000 rpm for 10 minutes to give supernatants which were diluted with purified water and then assayed using a TNF-α assay kit, Genzyme (Table 3).
Data set [2] is described as follows: Assay for Oral Absorption in Rat (plasma level by MMP-3 inhibition bioassay). The note with it: rat, po, 100 mg/kg; for AUC: male, Lewis.
Protocol: Each compound of the present invention was dissolved in distilled water for injection and orally administered to rats (Lewis strain line, male, body weight: about 200 g) at a dose of 100mg/kg. From 30 minutes to 4 hours after the administration, a series of blood chronologically collected from rat fundus oculi were centrifuged (3000rpm for 10 minutes at 4°C) to give plasma samples. Each plasma sample (200 µl) was filtered through an ultrafiltration membrane by centrifugation at 1500 x G for 3 minutes using a micropartition UF unit (Centrifree-MPS-3: 30,000 MW cut-off, Amicon Corp., Beverly, MA). […] The reaction was stopped by adding 900 µl of 3% aqueous acetic acid to the reaction mixture. The fluorescence of the resulting solution was read using an excitation wavelength of 325 nm and an emission wavelength of 393 nm. The concentration of each test compound in rat plasma samples was calculated using a standard curve which was prepared based on a variety of doses.
Data set [3] has as its target human fibroblast stromelysin (Homo sapiens, UniProt P08254). The experiment in a line: Assay for inhibition of stromelysin (fluorescein-labeled casein substrate). In kind it is biochemical. The following applies: plasmin-activated human fibroblast prostromelysin, 37°C, 2 hours, pH 7.8; read-out: Inhibition of MMP-3.
In data set [4] the target is T1, human fibroblast collagenase (Homo sapiens, UniProt P03956).
T1 sequence (P03956 100-469): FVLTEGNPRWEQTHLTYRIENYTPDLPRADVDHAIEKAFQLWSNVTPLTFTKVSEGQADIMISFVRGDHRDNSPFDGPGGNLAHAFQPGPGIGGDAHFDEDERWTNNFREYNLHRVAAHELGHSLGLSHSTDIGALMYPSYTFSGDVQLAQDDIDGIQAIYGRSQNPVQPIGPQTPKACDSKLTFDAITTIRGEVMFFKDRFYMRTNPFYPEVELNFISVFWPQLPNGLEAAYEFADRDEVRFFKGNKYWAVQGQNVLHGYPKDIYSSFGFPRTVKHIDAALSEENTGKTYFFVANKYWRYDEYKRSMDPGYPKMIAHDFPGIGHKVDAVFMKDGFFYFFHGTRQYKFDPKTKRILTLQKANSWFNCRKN
In words: Assay for inhibition of collagenase (fluorescein-labeled bovine type I collagen substrate). The note with it: activated human fibroblast procollagenase, 35°C, 2 hours, pH 7.5; read-out: Inhibition of MMP-1. In kind it is biochemical. The method, then: Described below are assays for biological activities of the compounds according to the present invention, formulations, dosage forms and dosage levels thereof, and miscellaneous matters. The efficacy of the compounds represented by the formula (I) according to the present invention as inhibitors of human fibroblast collagenase (metalloproteinase involved in the breakdown of tissues) is determined by a procedure based on the method of Y. Murawaki et al., Journal of Hepatology, 18, p328-334 (1993). The efficacy of the compounds (I) of this invention as inhibitors of human fibroblast stromelysin is determined by a procedure based on the method of S. S. Twining, Anal. Biochem., 143, p30 (1984). The assay results obtained are shown hereinbelow, together with biological examples which illustrate embodiments of the assay protocols.
The efficacy of compounds of the present invention to act as inhibitors of human fibroblast collagenase was determined by the procedure of Y. Murawaki et al. (Journal of Hepatology, 18, p.328-334, 1993), compared with a reference compound.
Procollagenase was activated by incubation with 2 mM 4-aminophenylmercuric acetate (APMA) at 35°C for 2 hours. The inhibition was assayed using, as a substrate, fluorescein-labeled bovine type I collagen. To a solution of the substrate (0.5 mg/ml) in a 50 mM Tris-HCl buffer, pH 7.5, containing 0.4M aqueous sodium chloride and 10 mM aqueous […] was added the activated collagenase. The resultant solution was incubated at 35°C for 2 hours. The digestion of the substrate with the enzyme was stopped by addition of 80 mM o-phenanthroline, followed by addition of a porcine elastase solution formed by dissolving 25 µg/ml porcine elastase in the aforementioned Tris-HCl buffer. The mixture was incubated at 37°C for 10 minutes. To the resulting solution was added 70% ethanol, and a 170 mM Tris-HCl buffer, pH 9.5, containing 0.67M aqueous sodium chloride. Undigested substrates were precipitated by centrifugation at 3000 x g for 20 minutes. The supernatant was collected and the fluorescence was read using an excitation wavelength of 495 nm and an emission wavelength of 520 nm. The inhibitory potency of the compounds was calculated. […] The resulting assay data for representative examples are shown in Table 1, compared with the reference compound. […]

Structures are written as SMILES.

Chain of human fibroblast stromelysin (P08254 100-477): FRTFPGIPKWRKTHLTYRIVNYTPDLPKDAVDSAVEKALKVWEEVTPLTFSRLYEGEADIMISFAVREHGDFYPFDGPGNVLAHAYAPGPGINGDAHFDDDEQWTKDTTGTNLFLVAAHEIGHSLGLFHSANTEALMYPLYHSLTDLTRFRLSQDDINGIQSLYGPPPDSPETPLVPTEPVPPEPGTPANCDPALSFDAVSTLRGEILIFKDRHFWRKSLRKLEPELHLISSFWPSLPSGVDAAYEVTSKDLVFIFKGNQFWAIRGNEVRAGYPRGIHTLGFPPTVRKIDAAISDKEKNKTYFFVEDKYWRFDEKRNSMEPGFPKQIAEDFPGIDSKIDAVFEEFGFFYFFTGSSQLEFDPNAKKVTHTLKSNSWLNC
Chain of TNF-α Convertase (P78536 215-824): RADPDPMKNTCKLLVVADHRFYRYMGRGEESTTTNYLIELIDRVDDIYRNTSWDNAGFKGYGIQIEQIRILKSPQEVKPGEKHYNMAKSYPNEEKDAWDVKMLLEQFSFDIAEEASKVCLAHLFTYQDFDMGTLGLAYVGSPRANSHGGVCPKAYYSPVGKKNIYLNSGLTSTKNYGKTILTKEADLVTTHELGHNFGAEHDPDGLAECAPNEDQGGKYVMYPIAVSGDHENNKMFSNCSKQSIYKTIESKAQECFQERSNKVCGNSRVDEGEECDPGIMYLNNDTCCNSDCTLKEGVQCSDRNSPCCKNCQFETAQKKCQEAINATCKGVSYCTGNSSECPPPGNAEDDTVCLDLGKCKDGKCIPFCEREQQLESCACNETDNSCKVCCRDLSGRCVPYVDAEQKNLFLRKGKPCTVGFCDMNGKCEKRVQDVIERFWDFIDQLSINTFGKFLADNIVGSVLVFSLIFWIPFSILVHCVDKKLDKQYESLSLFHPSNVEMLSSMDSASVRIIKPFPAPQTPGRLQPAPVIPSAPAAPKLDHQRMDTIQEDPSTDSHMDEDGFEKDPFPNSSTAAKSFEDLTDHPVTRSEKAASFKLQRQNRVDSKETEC

As a reminder, the AUC is the area under the concentration-time curve, a measure of exposure. A high value points to more exposure. In the case of `CNC(=O)C(Cc1ccc(CNC(C)=N)cc1)NC(=O)C(CC(C)C)C(C)C(=O)NO` (single isomer, unassigned) [Compound No. 41, N^a-[4-(Hydroxyamino)-2(R)-isobutyl-3(R or S)-methylsuccinyl]-4'-acetimidoyliminomethyl-L-phenylalanine N-methylamide · 1 acetate], the IC50 in data set [1] turned out to be 1010 nM; in data set [3], 18 nM. The molecule further returned an AUC in data set [2] of 3130 ng·h/mL.
Regarding `CC(=N)NCc1ccc(CC(NC(=O)C(CC(C)C)C(C)C(=O)NO)C(=O)NN2CCOCC2)cc1` (single isomer, unassigned) [Compound No. 42, N^a-[4-(Hydroxyamino)-2(R)-isobutyl-3(R or S)-methylsuccinyl]-4'-acetimidoyliminomethyl-L-phenylalanine N-(morpholin-4-yl)-amide · 1 acetate], the AUC in data set [2] was 6260 ng·h/mL. The IC50 in data set [3] amounted to 24 nM.
`CNC(=O)C(CCCCNC(C)=N)NC(=O)C(CC(C)C)C(C)C(=O)NO` [Compound No. 22, N^a-[4-(Hydroxyamino)-2(R)-isobutyl-3(RS)-methylsuccinyl]-N^e-acetimidoyl-L-lysine N-methylamide · 1 acetate] yielded an IC50 in data set [1] of 2080 nM. In data set [2], the AUC at 4 h worked out at 9130 ng·h/mL.
In the case of `CNC(=O)C(CCCN)NC(=O)C(CC(C)C)C(CCCc1ccc(NC(=N)N)cc1)C(=O)NO` [Compound No. 46, N^a-[4-(Hydroxyamino)-2(R)-isobutyl-3(RS)-[3-(4'-guanidinophenyl)propyl]succinyl]-L-ornithine-N-methylamide · 2 acetate], the IC50 in data set [4] came to 15 nM; in data set [1], 460 nM; in data set [3] it was 42 nM. Besides, in data set [2], the AUC came out at 3380 ng·h/mL.
